Patent publication US20040023884A1, “Biologically active peptides from functional domains of bactericidal/permeability-increasing protein and uses thereof” (priority 1993, published 2004)
Read-outs that look alike come from different tables or passages of the source. Square brackets hold non-standard residues; d marks the D form. Ends that are not written are not given here. 1Nal = N[C@@H](Cc1cccc2ccccc12)C(=O)O; d1Nal = N[C@H](Cc1cccc2ccccc12)C(=O)O

How the values were obtained:
[1] = tested on: Staphylococcus aureus; test: Radial diffusion bactericidal assay, Staphylococcus aureus; format: cell-based; details: radial diffusion; PROBIT analysis; S. aureus
[2] = tested on: E. coli 0111:B4 (smooth) bacteria; test: Radial diffusion bactericidal assay, E. coli 0111:B4; format: cell-based; details: radial diffusion; PROBIT analysis; E. coli O111:B4 (smooth)
[3] = tested on: rough mutant E. coli J5 bacteria; test: Radial diffusion bactericidal assay, E. coli J5; format: cell-based; details: radial diffusion; for pmol added to well to achieve a 30 mm^2 bactericidal zone, E. coli J5: PROBIT analysis, E. coli J5 (rough); for bactericidal activity (in words): E. coli J5
Procedure: BPI proteolytic fragments produced according to Example 1 were screened for bactericidal effects using rough mutant E. coli J5 bacteria in a radial diffusion assay. Specifically, an overnight culture of E. coli J5 was diluted 1:50 into fresh tryptic soy broth and incubated for 3 hours at 37° C. to attain log phase growth of the culture. Bacteria were then pelleted at 3,000 rpm for 5 minutes in a Sorvall RT6000B centrifuge (Sorvall Instruments, Newton, Conn.). 5 mL of 10 mM sodium phosphate buffer (pH 7.4) was added and the preparation was re-pelleted. […] The bacteria were diluted to 4×10^6 CFU/mL in 10 mL of molten underlayer agarose (at approximately 45° C.) and inverted repeatedly to mix in 15 mL polypropylene tubes conventionally used for this purpose.
The entire contents of such tubes were then poured into a level square petri dish and distributed evenly by rocking the dish side-to-side. […] A series of wells were then punched into the hardened agarose using a sterile 3 mm punch attached to a vacuum apparatus. The punch was sterilized with 100% alcohol and allowed to air dry prior to use to avoid contaminating the bacterial culture.
5 or 10 μL of each of the BPI fragments were carefully pipetted into each well. As a negative control, dilution buffer (pH 8.3) was added to a separate well, and rBPI23 at concentrations of 5 μg/mL and 1 μg/mL were also added as positive controls. Each plate was incubated at 37° C. for 3 hours, and then 10 mL of molten overlayer agarose (at approximately 45° C.) was added into the level petri dish, allowed to harden and incubated overnight at 37° C. […] The bacterial zones were measured with a micrometer.

[4] = 3H-heparin binding assay (affinity and capacity); details: for cpm ^3H-Heparin bound: 100 picomoles of each fragment per well, saturating 3H-heparin 20 μg/mL, mean of duplicate wells ± range; for heparin binding capacity: direct heparin binding assay; for Heparin Capacity: heparin bound at saturation
Procedure: Briefly, each fragment was added to wells of a 96-well microtiter plate having a polyvinylidene difluoride membrane (Immunobilon-P, Millipore, Bedford, Mass.) disposed at the bottom of the wells. […] Positive control wells contained varying amounts of rBPI23. […] DuPont-NEN, Wilmington, Del.) were made in the blocking buffer and incubated in the BPI peptide-containing wells for one hour at 4° C. The unbound heparin was aspirated and the wells were washed three times with blocking buffer, dried and removed for quantitation in a liquid scintillation counter (Model 1217, LKB, Gaithersburg, Md.). Although BSA in the blocking buffer did show a low affinity and capacity to bind heparin, this was considered physiologically irrelevant and the background was routinely subtracted from the test compound signal.

[5] = read-out: Kd of heparin binding

## BPI.65(Ox) (CIKISGKWKAQKRFLKC; not fully specified (bridges); also: oxidized)
[1]
  pmol added to well to achieve a 30 mm^2 bactericidal zone, S. aureus: 11,960.00 pmol
[2]
  pmol added to well to achieve a 30 mm^2 bactericidal zone, E. coli O111:B4: b (no detectable activity up to 5 μg/well)
[3]
  pmol added to well to achieve a 30 mm^2 bactericidal zone, E. coli J5: 849.79 pmol

## A3: Asp-N fragment of rBPI23, residues 39-56 (DSFKIKHLGKGHYSFYSM; UniProt P17213 70-87, looked up, fragment)
[4]
  cpm ^3H-Heparin bound: 8,664 ± 128 cpm

## KSKVGWLIQLFHKW [BPI.108]
[1]
  pmol added to well to achieve a 30 mm^2 bactericidal zone, S. aureus: 1,413,131,872.57 pmol
[2]
  pmol added to well to achieve a 30 mm^2 bactericidal zone, E. coli O111:B4: 306,965.11 pmol
[3]
  pmol added to well to achieve a 30 mm^2 bactericidal zone, E. coli J5: 661.05 pmol

## Cecropin A (KWKLFKKIEKVGQNIRDGIIKAGPAVAVVGQATQIAK; ends and bridges not checked; UniProt P01507 27-63, looked up) [antibacterial peptide of lepidopteran insects (Sigma), reference compound]
[4]
  heparin binding capacity: 242 ng heparin/2 μg peptide
  Heparin Capacity: 242.0 ng
[4]; read-out: Heparin Affinity
  Kd: 395 nM
[4]; [5]
  Kd: 395 nM

## KSKVGAD-β-(1-naphthyl)LIQLFHKK (KSKVG[d1Nal]LIQLFHKK) [BPI.129]
[1]
  pmol added to well to achieve a 30 mm^2 bactericidal zone, S. aureus: b (no detectable activity up to 5 μg/well)
[2]
  pmol added to well to achieve a 30 mm^2 bactericidal zone, E. coli O111:B4: b (no detectable activity up to 5 μg/well)
[3]
  pmol added to well to achieve a 30 mm^2 bactericidal zone, E. coli J5: 1,685.10 pmol

## C2: CNBr fragment of rBPI23, residues 57-70 (DIREFQLPSSQISM; CNBr fragment; UniProt P17213 88-101, looked up, fragment)
[4]
  cpm ^3H-Heparin bound: 6,262 ± 182 cpm

## IKISGKWKAQERFLK [BPI.136]
[1]
  pmol added to well to achieve a 30 mm^2 bactericidal zone, S. aureus: b (no detectable activity up to 5 μg/well)
[2]
  pmol added to well to achieve a 30 mm^2 bactericidal zone, E. coli O111:B4: b (no detectable activity up to 5 μg/well)
[3]
  pmol added to well to achieve a 30 mm^2 bactericidal zone, E. coli J5: 18,846.44 pmol

## KSKVGWLIYLFHKK [BPI.125]
[1]
  pmol added to well to achieve a 30 mm^2 bactericidal zone, S. aureus: b (no detectable activity up to 5 μg/well)
[2]
  pmol added to well to achieve a 30 mm^2 bactericidal zone, E. coli O111:B4: 11,306.79 pmol
[3]
  pmol added to well to achieve a 30 mm^2 bactericidal zone, E. coli J5: 428.85 pmol

## KSKVGWLIQLFWKK [BPI.107]
[1]
  pmol added to well to achieve a 30 mm^2 bactericidal zone, S. aureus: b (no detectable activity up to 5 μg/well)
[2]
  pmol added to well to achieve a 30 mm^2 bactericidal zone, E. coli O111:B4: 4,665.64 pmol
[3]
  pmol added to well to achieve a 30 mm^2 bactericidal zone, E. coli J5: 384.67 pmol

## GTAALQKELKRIKIP [BPI.54]
[2]
  pmol added to well to achieve a 30 mm^2 bactericidal zone, E. coli O111:B4: b (no detectable activity up to 5 μg/well)
[3]
  bactericidal activity (in words): little or no bactericidal activity
  pmol added to well to achieve a 30 mm^2 bactericidal zone, E. coli J5: b (no detectable activity up to 5 μg/well)
[4]
  heparin binding capacity (in words): low heparin binding capacity
  Heparin Capacity: 64.3 ng
[4]; read-out: Heparin Affinity
  Kd: 237 nM

## KSKVKAβ-(1-naphthyl)LIQLFHKK (KSKVK[1Nal]LIQLFHKK) [BPI.116]
[1]
  pmol added to well to achieve a 30 mm^2 bactericidal zone, S. aureus: b (no detectable activity up to 5 μg/well)
[2]
  pmol added to well to achieve a 30 mm^2 bactericidal zone, E. coli O111:B4: 37,539.59 pmol
[3]
  pmol added to well to achieve a 30 mm^2 bactericidal zone, E. coli J5: 73.82 pmol

## KSKVGWLIQLAβ-(1-naphthyl)HKK (KSKVGWLIQL[1Nal]HKK) [BPI.109]
[1]
  pmol added to well to achieve a 30 mm^2 bactericidal zone, S. aureus: b (no detectable activity up to 5 μg/well)
[2]
  pmol added to well to achieve a 30 mm^2 bactericidal zone, E. coli O111:B4: 44,875.41 pmol
[3]
  pmol added to well to achieve a 30 mm^2 bactericidal zone, E. coli J5: 308.60 pmol

## IKISGKWKAAARFLK [BPI.45]
[2]
  pmol added to well to achieve a 30 mm^2 bactericidal zone, E. coli O111:B4: 4,849.00 pmol
[3]
  pmol added to well to achieve a 30 mm^2 bactericidal zone, E. coli J5: 1,301.80 pmol
[4]
  Heparin Capacity: 160.7 ng
[4]; read-out: Heparin Affinity
  Kd: 153 nM

## Polymyxin B peptide [PMB Peptide, reference compound]
[4]
  heparin binding capacity: 58.0 ng heparin/2 μg peptide
  Heparin Capacity: 58.01 ng
[4]; read-out: Heparin Affinity
  Kd: 309 nM

## C6: CNBr fragment of rBPI23, residues 171-196 (NSQVCEKVTNSVSSELQPYFQTLPVM; CNBr fragment; UniProt P17213 202-227, looked up, fragment)
[4]
  cpm ^3H-Heparin bound: 26,204 ± 844 cpm

## Limulus anti-LPS factor [LALF, reference compound]
[4]
  heparin binding capacity: 195.3 ng heparin/2 μg peptide
  Heparin Capacity: 195.3 ng
[4]; read-out: Heparin Affinity
  Kd: 1290 nM
[4]; [5]
  Kd: 1290 nM

## 85-99: 15-mer pin-synthesized peptide corresponding to amino acids 85-99 of BPI, with cyclo(lysylprolyl) moiety on the carboxyl-terminus (IKISGKWKAQKRFLK-{cyclo(lysylprolyl)}; UniProt P17213 116-130, looked up, fragment)
[3]
  bactericidal activity (in words): found to have bactericidal activity

## C3: CNBr fragment of rBPI23, residues 71-100 (VPNVGLKFSISNANIKISGKWKAQKRFLKM; CNBr fragment; UniProt P17213 102-131, looked up, fragment)
[4]
  cpm ^3H-Heparin bound: 81,655 ± 3,163 cpm

## KSKVGW(p-amino)LIFLFHKK (KSKVG[p‑amino‑tryptophan]LIFLFHKK) [BPI.123]
[1]
  pmol added to well to achieve a 30 mm^2 bactericidal zone, S. aureus: b (no detectable activity up to 5 μg/well)
[2]
  pmol added to well to achieve a 30 mm^2 bactericidal zone, E. coli O111:B4: 6,651.23 pmol
[3]
  pmol added to well to achieve a 30 mm^2 bactericidal zone, E. coli J5: 247.20 pmol

## KSKVGA2-β-(1-naphthyl)LIQLFHKK (KSKVG[1Nal]LIQLFHKK; not fully specified; printed as KSKVGA2-β-(1-naphthyl)LIQLFHKK) [BPI.130]
[1]
  pmol added to well to achieve a 30 mm^2 bactericidal zone, S. aureus: b (no detectable activity up to 5 μg/well)
[2]
  pmol added to well to achieve a 30 mm^2 bactericidal zone, E. coli O111:B4: 4,377.92 pmol
[3]
  pmol added to well to achieve a 30 mm^2 bactericidal zone, E. coli J5: 325.75 pmol

## CIKISGKWKAQKRFLKC [BPI.65 (red.)]
[3]
  bactericidal activity (in words): highly bactericidal
[4]
  heparin binding capacity (in words): extremely high heparin capacity
  Heparin Capacity: 279.6 ng
[4]; read-out: Heparin Affinity
  Kd: 216 nM

## A2: Asp-N fragment of rBPI23, residues 15-38 (DYASQQGTAALQKELKRIKIPDYS; Asp-N fragment; UniProt P17213 46-69, looked up, fragment)
[4]
  cpm ^3H-Heparin bound: 3,042 ± 162 cpm

## SVHVHISKSKVGWLIQLFHKKIESALRNK [BPI.12]
[2]
  pmol added to well to achieve a 30 mm^2 bactericidal zone, E. coli O111:B4: b (no detectable activity up to 5 μg/well)
[3]
  pmol added to well to achieve a 30 mm^2 bactericidal zone, E. coli J5: 524.80 pmol
[4]
  Heparin Capacity: 231.5 ng
[4]; read-out: Heparin Affinity
  Kd: 285 nM

## KSKVWLIQLFHKK [BPI.11]
[2]
  pmol added to well to achieve a 30 mm^2 bactericidal zone, E. coli O111:B4: b (no detectable activity up to 5 μg/well)
[3]
  pmol added to well to achieve a 30 mm^2 bactericidal zone, E. coli J5: 638.30 pmol
[4]
  Heparin Capacity: 290.5 ng
[4]; read-out: Heparin Affinity
  Kd: 744 nM

## magainin II amide [reference compound]
[4]
  heparin binding capacity: 437.7 ng heparin/2 μg peptide
  Heparin Capacity: 453.7 ng
[4]; read-out: Heparin Affinity
  Kd: 3170 nM
[4]; [5]
  Kd: 3170 nM

## C4: CNBr fragment of rBPI23, residues 101-111 (SGNFDLSIEGM; CNBr fragment; UniProt P17213 132-142, looked up, fragment)
[4]
  cpm ^3H-Heparin bound: 4,686 ± 4 cpm

## CIKISGKWKAQKRFLKC [BPI.65 (ox.)]
[4]
  Heparin Capacity: 190.6 ng
[4]; read-out: Heparin Affinity
  Kd: 160 nM
